In US11407771B2 (priority 2018, dated 2022):

These compounds were tested against T1, MAPK13 (Homo sapiens (Human), UniProt O15264) (assay: not given). Conditions: read-out: MAPK13 IC50.
T1 sequence (O15264 whole entry): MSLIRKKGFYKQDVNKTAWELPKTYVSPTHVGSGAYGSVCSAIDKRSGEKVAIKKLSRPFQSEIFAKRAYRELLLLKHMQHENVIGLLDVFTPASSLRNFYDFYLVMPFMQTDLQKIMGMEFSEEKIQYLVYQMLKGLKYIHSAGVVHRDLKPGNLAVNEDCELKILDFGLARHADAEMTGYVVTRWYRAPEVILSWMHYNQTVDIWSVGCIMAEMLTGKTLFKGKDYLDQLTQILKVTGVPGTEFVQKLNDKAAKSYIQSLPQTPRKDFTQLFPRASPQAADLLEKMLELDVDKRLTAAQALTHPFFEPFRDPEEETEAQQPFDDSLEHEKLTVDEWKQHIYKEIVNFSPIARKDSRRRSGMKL

Question: How did the IC50 turn out when `CC(=O)Nc1cc(Oc2ccc(NC(=O)Nc3cc(C(C)(C)C)on3)c(F)c2)ccn1` [Compound 394, N-(4-{4-[3-(5-tert-Butyl-isoxazol-3-yl)-ureido]-3-fluoro-phenoxy}-pyridin-2-yl)-acetamide] was run?
Answer: 9 nM

Question: For `CC(=O)Nc1cc(Oc2ccc(NC(=O)Nc3cc(C(C)(C)C)no3)c(F)c2)ccn1` [Compound 395, N-(4-{4-[3-(3-tert-Butyl-isoxazol-5-yl)-ureido]-3-fluoro-phenoxy}-pyridin-2-yl)-acetamide], which IC50 is on record?
Answer: 11 nM

Same assay, conditions: read-out: MAPK13 inhibition

Question: For `CC(=O)Nc1cc(CCc2ccc(NC(=O)Nc3cc(C(C)(C)C)nn3C)c(F)c2)ccn1` [Compound 361, N-[4-(2-{4-[3-(5-tert-Butyl-2-methyl-2H-pyrazol-3-yl)-ureido]-3-fluoro-phenyl}-ethyl)-pyridin-2-yl]-acetamide], which IC50 is on record?
Answer: > 1000 nM

Question: How did the IC50 turn out when `CCOC(=O)Nc1cc(CCc2cnc(NC(=O)Nc3cc(C(C)(C)C)on3)s2)ccn1` [Compound 364, [4-(2-{2-[3-(5-tert-Butyl-isoxazol-3-yl)-ureido]-thiazol-5-yl}-ethyl)-pyridin-2-yl]-carbamic acid ethyl ester] was run?
Answer: < 250 nM

Question: How did the IC50 turn out when `CC(=O)Nc1cc(CCc2cnc(NC(=O)Nc3cc(C(C)(C)C)on3)s2)ccn1` [Compound 366, N-[4-(2-{2-[3-(5-tert-Butyl-isoxazol-3-yl)-ureido]-thiazol-5-yl}-ethyl)-pyridin-2-yl]-acetamide] was run?
Answer: < 250 nM

Question: Which IC50 does the source give for `CC(C)(C)c1cc(NC(=O)Nc2ncc(CCc3ccnc(NC(=O)C4CC4)c3)s2)[nH]n1` [Compound 368, Cyclopropanecarboxylic acid [4-(2-{2-[3-(5-tert-butyl-2H-pyrazol-3-yl)-ureido]-thiazol-5-yl}-ethyl)-pyridin-2-yl]-amide] here?
Answer: < 250 nM

Question: With `CC(C)(C)c1cc(NC(=O)Nc2ncc(CCc3ccnc(NC(=O)C4CC4)c3)s2)no1` [Compound 369, Cyclopropanecarboxylic acid [4-(2-{2-[3-(5-tert-butyl-isoxazol-3-yl)-ureido]-thiazol-5-yl}-ethyl)-pyridin-2-yl]-amide] as the compound, how does the IC50 read?
Answer: < 250 nM

Question: With `CC(=O)Nc1cc(CCc2ccc(NC(=O)Nc3cc(C(C)(C)C)nn3CC3CC3)c(F)c2)ccn1` [Compound 370, N-[4-(2-{4-[3-(5-tert-Butyl-2-cyclopropylmethyl-2H-pyrazol-3-yl)-ureido]-3-fluoro-phenyl}-ethyl)-pyridin-2-yl]-acetamide] as the compound, how does the IC50 read?
Answer: > 1000 nM

Question: Which IC50 does the source give for `CC(=O)Nc1cc(CCc2ccc(NC(=O)Nc3cc(C(C)(C)C)nn3C(C)C)c(F)c2)ccn1` [Compound 371, N-[4-(2-{4-[3-(5-tert-Butyl-2-isopropyl-2H-pyrazol-3-yl)-ureido]-3-fluoro-phenyl}-ethyl)-pyridin-2-yl]-acetamide] here?
Answer: > 1000 nM

Question: Which IC50 does the source give for `CC(C)(C)c1cc(NC(=O)Nc2ccc(CCc3ccnc(NC(=O)C4CC4)c3)cc2F)n(CC2CC2)n1` [Compound 372, Cyclopropanecarboxylic acid [4-(2-{4-[3-(5-tert-butyl-2-cyclopropylmethyl-2H-pyrazol-3-yl)-ureido]-3-fluoro-phenyl}-ethyl)-pyridin-2-yl]-amide] here?
Answer: > 1000 nM

Question: For `CC(C)(C)c1cc(NC(=O)Nc2ccc(CCc3ccnc(NC(=O)C4CC4)c3)cc2F)on1` [Compound 374, Cycloproprinecarboxylic acid [4-(2-{4-[3-(3-tert-butyl-isoxazol-5-yl)-ureido]-3-fluoro-phenyl}-ethyl)-pyridin-2-yl]-amide], which IC50 is on record?
Answer: > 1000 nM

Question: `CC(C)n1nc(C(C)(C)C)cc1NC(=O)Nc1ccc(CCc2ccnc(NC(=O)C3CC3)c2)cc1F` [Compound 375, Cyclopropanecarboxylic acid [4-(2-{4-[3-(5-tert-butyl-2-isopropyl-2H-pyrazol-3-yl)-ureido]-3-fluoro-phenyl}-ethyl)-pyridin-2-yl]-amide] was tested. Which IC50 did it give?
Answer: > 1000 nM

Question: With `CC(C)(C)c1cccc(NC(=O)Nc2ccc(CCc3ccnc(NC(=O)C4CC4)c3)cc2F)c1` [Compound 376, Cyclopropancearboxylic acid [4-(2-{4-[3-(3-tert-butyl-phenyl)-ureido]-3-fluoro-phenyl}-ethyl)-pyridin-2-yl]-amide] as the compound, how does the IC50 read?
Answer: > 1000 nM

Question: With `CC(=O)Nc1cc(CCc2ccc(NC(=O)Nc3cccc(C(C)(C)C)c3)c(F)c2)ccn1` [Compound 377, N-[4-(2-{4-[3-(3-tert-Butyl-phenyl)-ureido]-3-fluoro-phenyl}-ethyl)-pyridin-2-yl]-acetamide] as the compound, how does the IC50 read?
Answer: > 1000 nM

Question: How did the IC50 turn out when `CC(C)(C)c1cc(NC(=O)Nc2ccc(CCc3ccnc(NC(=O)C4CC4)c3)cc2F)no1` [Compound 378, Cyclopropanecarboxylic acid [4-(2-{4-[3-(5-tert-butyl-isoxazol-3-yl)-ureido]-3-fluoro-phenyl}-ethyl)-pyridin-2-yl]-amide] was run?
Answer: > 1000 nM

Question: Which IC50 does the source give for `CC(=O)Nc1cc(CCc2cnc(NC(=O)Nc3cc(C(C)(C)C)no3)s2)ccn1` [Compound 382] here?
Answer: < 250 nM

Question: For `CC(C)(C)c1ccc(Cl)c(NC(=O)Nc2ncc(CCc3ccncc3)s2)c1` [Compound 388, 1-(5-tert-Butyl-2-chloro-phenyl)-3-[5-(2-pyridin-4-yl-thiazol)-thiazol-2-yl]-urea], which IC50 is on record?
Answer: > 1000 nM

Question: With `CC(C)n1nc(C(C)(C)C)cc1NC(=O)Nc1ncc(CCc2ccncc2)s1` [Compound 389, 1-(5-tert-Butyl-2-isopropyl-2H-pyrazol-3-yl)-3-[5-(2-pyridin-4-yl-ethyl)-thiazol-2-yl]-urea] as the compound, how does the IC50 read?
Answer: > 1000 nM

Question: `CC(C)(C)c1cc(NC(=O)Nc2ncc(CCc3ccnc(NC(=O)C4CC4)c3)s2)n(-c2ccc(Cl)cc2)n1` [Compound 390, N-[4-[2-[2-[[5-tert-butyl-2-(4-chlorophenyl)pyrazol-3-yl]carbamoylamino]thiazol-5-yl]ethyl]-2-pyridyl]cyclopropanecarboxamide] was tested. Which IC50 did it give?
Answer: < 250 nM

Question: With `CC(=O)Nc1cc(Oc2ccc(NC(=O)Nc3cc(C(C)(C)C)nn3C(C)C)c(F)c2)ccn1` [Compound 392, N-(4-{4-[3-(5-tert-Butyl-2-isopropyl-2H-pyrazol-3-yl)-ureido]-3-fluoro-phenoxy}-pyridin-2-yl)-acetamide] as the compound, how does the IC50 read?
Answer: < 250 nM

Question: Which IC50 does the source give for `CC(=O)Nc1cc(Oc2ccc(NC(=O)Nc3cc(C(C)(C)C)on3)c(F)c2)ccn1` [Compound 394, N-(4-{4-[3-(5-tert-Butyl-isoxazol-3-yl)-ureido]-3-fluoro-phenoxy}-pyridin-2-yl)-acetamide] here?
Answer: < 250 nM

Question: For `CC(=O)Nc1cc(Oc2ccc(NC(=O)Nc3cc(C(C)(C)C)no3)c(F)c2)ccn1` [Compound 395, N-(4-{4-[3-(3-tert-Butyl-isoxazol-5-yl)-ureido]-3-fluoro-phenoxy}-pyridin-2-yl)-acetamide], which IC50 is on record?
Answer: < 250 nM

Question: Which IC50 does the source give for `CC(=O)Nc1cc(Oc2ccc(NC(=O)Nc3cc([Si](C)(C)C)ccc3F)c(F)c2)ccn1` [Compound 399, N-(4-{3-Fluoro-4-[3-(2-fluoro-5-trimethylsilanyl-phenyl)-ureido]-phenoxy}-pyridin-2-yl)-acetamide] here?
Answer: < 250 nM

Question: Which IC50 does the source give for `CC(=O)Nc1cc(CCc2cnc(NC(=O)Nc3cc([Si](C)(C)C)ccc3F)s2)ccn1` [Compound 400, N-[4-(2-{2-[3-(2-Fluoro-5-trimethylsilanyl-phenyl)-ureido]-thiazol-5-yl}-ethyl)-pyridin-2-yl]-acetamide] here?
Answer: < 250 nM

Question: `CC(=O)Nc1cc(COc2ccc(NC(=O)Nc3cc(C(C)(C)C)nn3-c3ccc(C)cc3)c(F)c2)ccn1` [Compound 402, N-(4-{4-[3-(5-tert-Butyl-2-p-tolyl-2H-pyrazol-3-yl)-ureido]-3-fluoro-phenoxymethyl}-pyridin-2-yl)-acetamide] was tested. Which IC50 did it give?
Answer: < 250 nM

Question: Which IC50 does the source give for `CC(=O)Nc1cc(Oc2ccc(NC(=O)Nc3cc(C4CC4)ccc3Cl)c(F)c2)ccn1` [Compound 423, N-(4-{4-[3-(2-Chloro-5-cyclopropyl-phenyl)-ureido]-3-fluoro-phenoxy}-pyridin-2-yl)-acetamide] here?
Answer: < 250 nM

Question: With `O=C(CO)Nc1cc(Oc2ccc(NC(=O)Nc3cc(C4CC4)ccc3F)c(F)c2)ccn1` [Compound 424, N-(4-{4-[3-(5-Cyclopropyl-2-fluoro-phenyl)-ureido]-3-fluoro-phenoxy}-pyridin-2-yl)-2-hydroxy-acetamide] as the compound, how does the IC50 read?
Answer: < 250 nM

Question: `COCCC(=O)Nc1cc(Oc2ccc(NC(=O)Nc3cc(C4CC4)ccc3F)c(F)c2)ccn1` [Compound 425, N-(4-{4-[3-(5-Cyclopropyl-2-fluoro-phenyl)-ureido]-3-fluoro-phenoxy}-pyridin-2-yl)-3 methoxypropionamide] was tested. Which IC50 did it give?
Answer: < 250 nM

Question: How did the IC50 turn out when `CC(C)(C)c1ccc(Cl)c(NC(=O)Nc2ccc(Oc3ccnc(NC(=O)CO)c3)cc2F)c1` [Compound 426, N-(4-{4-[3-(5-tert-Butyl-2-chloro-phenyl)-ureido]-3-fluoro-phenoxy}-pyridin-2-yl)-2-hydroxy-acetamide] was run?
Answer: < 250 nM

Question: With `COCCC(=O)Nc1cc(Oc2ccc(NC(=O)Nc3cc(C(C)(C)C)ccc3Cl)c(F)c2)ccn1` [Compound 427, N-(4-{4-[3-(5-tert-Butyl-2-chloro-phenyl)-ureido]-3-fluoro-phenoxy}-pyridin-2-yl)-3-methoxy-propionamide] as the compound, how does the IC50 read?
Answer: < 250 nM

Question: For `CC(C)(C)c1ccc(Cl)c(NC(=O)Nc2ccc(Oc3ccnc(N)c3)cc2F)c1` [Compound 428, 1-[4-(2-Amino-pyridin-4-yloxy)-2-fluoro-phenyl]-3-(5-tert-butyl-2-chloro-phenyl)-urea], which IC50 is on record?
Answer: > 1000 nM

Each compound was assayed against T1, MAPK13 (assay: biochemical). Conditions: not given.

Question: How did the IC50 turn out when `COCC(=O)Nc1cc(Oc2ccc(NC(=O)Nc3cc(C4(C)COC4)nn3-c3ccc(C)cc3)c(F)c2)ccn1` [Compound 267, N-[4-[3-fluoro-4-[[5-(3-methyloxetan-3-yl)-2-(p-tolyl)pyrazol-3-yl]carbamoylamino]phenoxy]-2-pyridyl]-2-methoxy-acetamide] was run?
Answer: < 250 nM

Question: How did the IC50 turn out when `Cc1ccc(-n2nc(C(C)(C)C)cc2NC(=O)Nc2ncc(CCc3ccncc3)s2)cc1` [Compound 270, 1-(5-tert-Butyl-2-p-tolyl-2H-pyrazol-3-yl)-3-[5-(2-pyridin-4-yl-ethyl)-thiazol-2-yl]-urea] was run?
Answer: 250 to 1000 nM

Question: How did the IC50 turn out when `Cc1ccc(-n2nc(C3(C)COC3)cc2NC(=O)Nc2ncc(CCc3ccncc3)s2)cc1` [Compound 271] was run?
Answer: 250 to 1000 nM

Question: For `Cc1ccc(-n2nc(C(C)(C)C)cc2NC(=O)Nc2ncc(CCc3ccnc(NC(=O)OCc4ccccc4)c3)s2)cc1` [Compound 277, [4-(2-{2-[3-(5-tert-Butyl-2-p-tolyl-2H-pyrazol-3-yl)-ureido]-thiazol-5-yl}-ethyl)-pyridin-2-yl]-carbamic acid benzyl ester], which IC50 is on record?
Answer: 250 to 1000 nM

Question: Which IC50 does the source give for `Cc1ccc(-n2nc(C(C)(C)CO)cc2NC(=O)Nc2ccc(Oc3ccncc3)cc2F)cc1` [Compound 279, 1-[2-Fluoro-4-(pyridin-4-yloxy)-phenyl]-3-[5-(2-hydroxy-1,1-dimethyl-ethyl)-2-p-tolyl-2H-pyrazol-3-yl]-urea] here?
Answer: 250 to 1000 nM

Question: `Cc1ccc(-n2nc(C(C)(C)CO)cc2NC(=O)Nc2ccc(Oc3ccncc3)cc2)cc1` [Compound 280, 1-[5-(2-Hydroxy-1,1-dimethyl-ethyl)-2-p-tolyl-2H-pyrazol-3-yl]-3-[4-(pyridin-4-yloxy)-phenyl]-urea] was tested. Which IC50 did it give?
Answer: 250 to 1000 nM
